Reference: US7741479B2, “Urea inhibitors of MAP kinases” (Locus Pharmaceuticals, Inc., priority 2004, dated 2010)
Where two headings read alike, the source gives them in different places.

Molecular target: T1, p38 (Homo sapiens, UniProt Q16539)
T1 construct: made in house
Experiment: Protein Kinase Assay (33P incorporation from γ-[33P]ATP into GST-ATF-2 substrate)
Assay type: biochemical
Settings: for inhibition at 10 µM: compound at 10 μM
Experimental: Human non-activated p38 kinase (MW=43 kDa) was purified according to the protocol described herein. Chemicals were purchased from Calbiochem. Fluorescence characterizations were conducted using a Cary Eclipse (Varian Analytical Instruments, Walnut Creek, Calif.). Research-grade CM5 sensor chips and coupling reagents (N-ethyl-N′-dimethylaminopropylcarbodiimide (EDC) N-hydroxysuccinimide (NHS), and 1 M ethanolamine HCl, pH 8.5) were purchased from Biacore AB (Uppsala, Sweden). The biosensor analyses were conducted using a Biacore 3000 SPR instrument. The kinetic analyses were carried on a Molecular Devices spectrophotometer (Molecular Devices Corporation, CA, USA).
Protein Kinase Assay. The protein kinase activity of p38 was determined by measuring the incorporation of ^33P from γ-[^33P]ATP into the GST-ATF-2 substrate, amino acids 19-96 (Upstate, NY USA). […] Compounds were preincubated with 10 nM p38 for 20 min at 30° C.; the reactions were initiated by the addition of GST-ATF2 and ATP and incubated for 70 min at 30° C. before being stopped by the addition of 10 μL of 600 mM phosphoric acid. The phosphorylated substrate was captured on phosphocellulose 96-well plate (Millipore MAPHNOB 10), washed with 100 mM phosphoric acid, and counted in a BeckmenCoulter LS6500 liquid scintillation counter.

[1] = compound at 3 μM, read-out: Protein Kinase (% Inhibition at 3 μM)

T1 sequence (Q16539 whole entry): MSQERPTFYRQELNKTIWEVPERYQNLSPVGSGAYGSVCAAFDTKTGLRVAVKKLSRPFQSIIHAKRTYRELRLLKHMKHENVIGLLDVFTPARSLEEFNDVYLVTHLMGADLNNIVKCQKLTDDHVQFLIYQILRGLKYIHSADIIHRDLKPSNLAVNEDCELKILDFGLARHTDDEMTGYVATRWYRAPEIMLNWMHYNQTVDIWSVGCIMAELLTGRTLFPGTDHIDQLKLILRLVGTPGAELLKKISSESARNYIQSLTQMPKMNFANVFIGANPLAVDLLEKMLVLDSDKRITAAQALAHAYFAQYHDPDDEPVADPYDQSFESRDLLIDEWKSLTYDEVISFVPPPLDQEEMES

Row | Compound | inhibition at 10 µM [%] | inhibition at 3 µM [1] [%] | also measured
1 | CC(C)(C)c1cc(NC(=O)Nc2ccc(Cl)cc2)c(CN2CCS(=O)(=O)CC2)s1 [Example 15, 1-[5-tert-butyl-2-(1,1-dioxo-1λ^6-thiomorpholin-4-ylmethyl)thiophen-3-yl]-3-(4-chlorophenyl)urea] | 51 to 75 |  | 
2 | CC(C)(C)c1cc(C(=O)N2CCSCC2)c(NC(=O)Nc2cccc3ccccc23)s1 [Example 18, 1-[5-tert-butyl-3-(thiomorpholine-4-carbonyl)thiophen-2-yl]-3-naphthalen-1-ylurea] | 51 to 75 |  | 
3 | CC(C)(C)c1cc(NC(=O)Nc2ccc3ccccc3c2)c(CN2CCS(=O)(=O)CC2)s1 [Example 13, 1-[5-tert-butyl-2-(1,1-dioxo-1λ^6-thiomorpholin-4-ylmethyl)thiophen-3-yl]-3-naphthalen-2-ylurea] | 26 to 50 |  | 
4 | CC(C)(C)c1cc(NC(=O)Nc2cccc3ccccc23)c(C(=O)N2CCNC(=O)CC2)s1 [Example 50, 1-[5-tert-butyl-2-(5-oxo-[1,4]diazepane-1-carbonyl)thiophen-3-yl]-3-naphthalen-1-ylurea] |  | 76 to 100 | 
5 | CC(C)(C)c1cc(C(=O)Nc2ccc3nn[nH]c3c2)c(NC(=O)Nc2cccc(Cl)c2Cl)s1 [Example 133, 5-tert-Butyl-2-[3-(2,3-dichlorophenyl)ureido]thiophene-3-carboxylic acid (3H-benzotriazol-5-yl)amide] |  |  | inhibition at 0.5 µM (same procedure at 0.5 μM): 76 to 100%
6 | CC(C)(C)c1cc(C(=O)N2CCS(=O)(=O)CC2)c(NC(=O)Nc2cccc(Cl)c2Cl)s1 [Example 58, 1-[5-tert-butyl-3-(1,1-dioxo-1λ^6-thiomorpholine-4-carbonyl)thiophen-2-yl]-3-(2,3-dichlorophenyl)urea] |  | 76 to 100 | 
7 | CC(C)(C)c1cc(NC(=O)Nc2ccc3ccccc3c2)c(N2CCS(=O)(=O)CC2)s1 [Example 27, 1-[5-tert-butyl-2-(1,1-dioxo-1λ^6-thiomorpholin-4-yl)thiophen-3-yl]-3-naphthalen-2-ylurea] |  |  | inhibition at 0.5 µM (compound at 0.5 μM (noted beside the value in Table 1)): 51 to 76%
8 | CC(C)(C)c1cc(C(=O)N2CCNS(=O)(=O)CC2)c(NC(=O)Nc2cccc3ccccc23)s1 [Example 37, 1-[5-tert-butyl-3-(1,1-dioxo-1λ^6-[1,2,5]thiadiazepane-5-carbonyl)thiophen-2-yl]-3-naphthalen-1-ylurea] |  |  | inhibition at 3 µM (compound at 3 μM (noted beside the value in Table 1), read-out: Protein Kinase (% Inhibition)): 51 to 75%
9 | CC(C)(C)c1cc(C(=O)N2CCS(=O)(=O)CC2)c(NC(=O)Nc2ccc(C#N)c(Cl)c2)s1 [Example 64, 1-[5-tert-butyl-3-(1,1-dioxo-1λ^6-thiomorpholine-4-carbonyl)thiophen-2-yl]-3-(3-chloro-4-cyanophenyl)urea] |  | 51 to 75 | 
10 | Cc1cccc(NC(=O)Nc2sc(C(C)(C)C)cc2C(=O)N2CCS(=O)(=O)CC2)c1 [Example 67, 1-[5-tert-butyl-3-(1,1-dioxo-1λ^6-thiomorpholine-4-carbonyl)thiophen-2-yl]-3-(3-tolyl)urea] |  | 76 to 100 | 
11 | CC(C)(C)c1cc(CN2CCS(=O)(=O)CC2)c(NC(=O)Nc2cccc3ccccc23)s1 [Example 5, 1-[5-tert-butyl-3-(1,1-dioxo-1λ^6-thiomorpholin-4-ylmethyl)thiophen-2-yl]-3-naphthalen-1-ylurea] | 76 to 100 |  | 

The next lines start with results.

Row | inhibition at 10 µM [%] | inhibition at 3 µM [1] [%] | Compound | also measured
12 |  | 76 to 100 | CC(C)(C)c1cc(C(=O)N2CCS(=O)(=O)CC2)c(NC(=O)Nc2cc(Cl)cc(Cl)c2)s1 [Example 68, 1-[5-tert-butyl-3-(1,1-dioxo-1λ^6-thiomorpholine-4-carbonyl)thiophen-2-yl]-3-(3,5-dichlorophenyl)urea] | 
13 |  | 76 to 100 | CC(C)(C)c1cc(C(=O)N2CCNS(=O)(=O)CC2)c(NC(=O)Nc2ccc(C#N)c3ccccc23)s1 [Example 56, 1-[5-tert-butyl-3-(1,1-dioxo-1λ^6-[1,2,5]thiadiazepane-5-carbonyl)thiophen-2-yl]-3-(4-cyanonaphthalen-1-yl)urea] | 
14 | 0 to 25 |  | CC(C)(C)c1cc(C(=O)N2CCS(=O)(=O)CC2)c(NC(=O)Nc2ccc(Oc3ccccc3)cc2)s1 [Example 28, 1-[5-tert-butyl-3-(1,1-dioxo-1λ^6-thiomorpholine-4-carbonyl)thiophen-2-yl]-3-(4-phenoxyphenyl)urea] | 
